Test results reported in patent US8293704B2, “Crystalline form of linaclotide” (priority 2009, dated 2012).
Bridge positions count the residues as written; N and C are the ends. Peptide text beside a SMILES is read from it.

Assay: Solid-state chemical stability of amorphous and α-crystalline linaclotide (HPLC assay after storage at 40° C./75% RH)
Type: physicochemical
Details: for Degradation Products / Normalized Assay / Acetylation Product / Hydrolysis Product / Non-disulfide linked multimers / Water-Mediated Products: induction sealed 45 cc HDPE bottles; for Remaining fraction (not assay, not degradation products), may comprise multimers: 3 months at 40° C./75% RH
Procedure: The relative chemical purity and stability of amorphous and crystalline linaclotide was studied using reverse phase high performance liquid chromatography (HPLC). The chemical identification was conducted using reverse phase high performance liquid chromatography coupled with mass spectroscopy (HPLC-MS). The mass spectroscopic analysis was performed at Enhance MS scan (EMS) mode with positive ionization and a scan range (m/z) of 600-1600.
A Perkin Elmer series 200 LC instrument (Perkin Elmer, Waltham, Mass.) was used with a YMC Pro C18 column (150 mm×3.0 mm, 3 μm) (Waters Corporation, Milford, Mass.). The column temperature was set at 40° C. while the auto sampler temperature was maintained at 4° C. using a peltier tray. The injection volume was 50 μl. A gradient (0.6 ml/minute) run was used comprising of two solvents; A (97.9% Water, 2% Acetonitrile, 0.1% Trifluoroacetic Acid) and B (94.9% Acetonitrile, 5% Water, 0.1% Trifluoroacetic Acid). The gradient was set according to the scheme described in Table 10. The effluent was detected at 220 nm using a UV detector.
The solid-state chemical stability of the α-crystalline form of linaclotide was then compared to that of amorphous form linaclotide. Known quantities of test materials were placed in 45 cc high-density polyethylene bottles. The bottles were induction sealed and placed in 40° C./75% RH stability chamber. Two bottles were then withdrawn at the time points of 2 weeks, at 1 month, at 2 months, and at 3 months, and were analyzed after adequate dilution for assay.

[1] = 3 months storage, 40° C./75% RH

SMILES | Degradation Products (1 Month at 40° C./75% RH) [Wt %] | Normalized Assay (1 Month at 40° C./75% RH) [Wt %] | Degradation Products (2 Months at 40° C./75% RH) [Wt %] | Normalized Assay (2 Months at 40° C./75% RH) [Wt %] | Degradation Products (2 Weeks at 40° C./75% RH) [Wt %] | Normalized Assay (2 Weeks at 40° C./75% RH) [Wt %] | Degradation Products (3 Months at 40° C./75% RH) [Wt %] | Normalized Assay (3 Months at 40° C./75% RH) [Wt %] | Remaining fraction (not assay, not degradation products), may comprise multimers [%] | Acetylation Product [1] [Wt %] | Hydrolysis Product [1] [Wt %] | Non-disulfide linked multimers [1] [Wt %] | Water-Mediated Products [1] [Wt %] | Degradation Products (Initial, solid state) [Wt %] | Normalized Assay (Initial, solid state) [Wt %] | Remaining fraction (not assay, not degradation products), may comprise multimers (listed as α-form linaclotide) [%] | Acid-induced hydrolysis (in words) [1] | Concentration of degradation products compared with amorphous linaclotide (in words) (40° C./75% RH, up to 3 months) | Multimer formation compared with amorphous linaclotide (in words) (40° C./75% RH, up to 3 months) | Stability profile compared with amorphous linaclotide (in words) (40° C./75% RH, up to 3 months)
C[C@@H]1NC(=O)[C@@H]2CCCN2C(=O)[C@H](CC(N)=O)NC(=O)[C@@H]2CSSC[C@H](N)C(=O)N[C@H]3CSSC[C@H](NC1=O)C(=O)N[C@@H]([C@@H](C)O)C(=O)NCC(=O)N[C@H](C(=O)N[C@@H](Cc1ccc(O)cc1)C(=O)O)CSSC[C@H](NC(=O)[C@H](Cc1ccc(O)cc1)NC(=O)[C@H](CCC(=O)O)NC3=O)C(=O)N2 [Amorphous Linaclotide, linaclotide] (H-CCEYCCNPACTGCY-OH; disulfide 1-6, 2-10, 5-13) | 5.6 | 79.1 | 9.3 | 74.5 | 3.6 | 84.0 | 12.0 | 68.8 | 19.2 | 2.39 | 0.30 | 1.96 | 7.00 | 2.1 | 100.0 | – | – | – | – | –
C[C@@H]1NC(=O)[C@@H]2CCCN2C(=O)[C@H](CC(N)=O)NC(=O)[C@@H]2CSSC[C@H](N)C(=O)N[C@H]3CSSC[C@H](NC1=O)C(=O)N[C@@H]([C@@H](C)O)C(=O)NCC(=O)N[C@H](C(=O)N[C@@H](Cc1ccc(O)cc1)C(=O)O)CSSC[C@H](NC(=O)[C@H](Cc1ccc(O)cc1)NC(=O)[C@H](CCC(=O)O)NC3=O)C(=O)N2 [α-Crystalline Linaclotide, linaclotide] (H-CCEYCCNPACTGCY-OH; disulfide 1-6, 2-10, 5-13) | 3.8 | 91.9 | 5.1 | 89.7 | 2.6 | 94.8 | 7.5 | 88.4 | – | 0.31 | 5.70 | 0.07 | 0.40 | 2.4 | 100.0 | 4.1 | pronounced | significantly lower concentration of degradation products | significantly less multimer formation | substantially better stability profile than amorphous linaclotide
